Measurements published in ChEMBL document CHEMBL3600385 (Bioorg Med Chem Lett, 2015).
Activity calls are given as the source filed them. The calls are words filed in the database; no cut-off is given here.

What was measured:
[1] = target: Neuronal acetylcholine receptor subunit alpha-7 (Rattus norvegicus) (UniProt Q05941); test: Agonist activity at rat alpha-7 nicotinic acetylcholine receptor expressed in Xenopus oocytes assessed as ratio of maximum response to compound to that induced by 1 mM acetylcholine at 1 mM treated for 3 to 4 secs followed by compound washout for 4 mins by two-electrode voltage-clamp electrophysiology assay; format: cell-based
[2] = target: T1, Neuronal acetylcholine receptor subunit alpha-7 (Rattus norvegicus, UniProt Q05941); test: (§1) Antagonist activity at rat alpha-7 nicotinic acetylcholine receptor expressed in Xenopus oocytes assessed as inhibition of acetylcholine-induced currents preincubated for 10 mins followed by nicotine induction by two-electrode voltage-clamp electrophysiology assay; format: cell-based
[3] = target: Neuronal acetylcholine receptor subunit alpha-7 (Rattus norvegicus) (UniProt Q05941); test: as §1, with “of nicotine-induced current amplitudes at IC50 for” for “of”, “assay relative to control” for “assay”; format: cell-based
[4] = target: Neuronal acetylcholine receptor subunit alpha-7 (Rattus norvegicus) (UniProt Q05941)
[5] = target: T1, Neuronal acetylcholine receptor subunit alpha-7

T1 sequence (Q05941 whole entry): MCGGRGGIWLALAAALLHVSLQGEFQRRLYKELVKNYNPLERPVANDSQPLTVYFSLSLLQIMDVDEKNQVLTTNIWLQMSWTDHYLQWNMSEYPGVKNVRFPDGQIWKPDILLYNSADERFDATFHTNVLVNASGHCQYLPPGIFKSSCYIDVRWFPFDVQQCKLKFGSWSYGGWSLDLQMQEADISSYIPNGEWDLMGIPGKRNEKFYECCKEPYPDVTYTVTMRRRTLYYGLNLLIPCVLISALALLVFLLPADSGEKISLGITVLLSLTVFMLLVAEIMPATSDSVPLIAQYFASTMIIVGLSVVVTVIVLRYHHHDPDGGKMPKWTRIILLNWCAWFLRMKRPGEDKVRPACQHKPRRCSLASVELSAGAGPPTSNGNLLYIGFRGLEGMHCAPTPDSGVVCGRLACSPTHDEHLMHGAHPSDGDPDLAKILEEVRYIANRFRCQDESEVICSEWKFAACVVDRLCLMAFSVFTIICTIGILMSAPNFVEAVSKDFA
Neuronal acetylcholine receptor subunit alpha-7 (Rattus norvegicus), sequence (Q05941 whole entry): as above

SMILES | Ratio [1] | IC50 [2] | inhibition [3] | pEC50 [4] | EC50 [5]
O=C(N[C@H]1C[N+]2(CCl)CCC1CC2)c1ccccc1F | 0.021 | 28.4 µM | 65.7% |  | 
O=C(N[C@@H]1C[N+]2(CCl)CCC1CC2)c1ccccc1F |  | 39.3 µM | 33.2% | inactive | 
COc1cc(N)c(Cl)cc1C(=O)NC1CN2CCC1CC2 (stereo not drawn) [ZACOPRIDE] | 0.038 | 7.04 µM | 4.37% |  | 
O=C(NC1CN2CCC1CC2)c1ccccc1F (stereo not drawn) | 0.19 | 8.07 µM | 26.5% |  | 56.5 µM
